Legend:
[1] = Tg of HDC formulations with incorporated active; type: physicochemical
Text: (§1) The model hydrophilic drug, diltiazem hydrochloride (“hydrophilic active”), was incorporated (10% loading) into solid vehicles of the single straight chain HDC trehalose octaacetate or the branched chain HDCs trehalose octa-3,3, dimethylbutyrate and trehalose octapivalate as well as composite formulations (1:1 ratio) of the two branched-chain HDCs or the straight chain HDC trehalose octaacetate and the branched chain HDC trehalose octapivalate, by quenching from the melt. Release of the active from the HDC solid dose delivery vehicle was assessed using an in vitro USP (volume 23) type 2 dissolution test in saline containing 0.1% sodium cholate as the dissolution medium.
The model hydrophilic drug diltiazem hydrochloride was also incorporated (5% loading) into solid vehicles of the single branched chain HDCs trehalose diisobutyrate hexaacetate and trehalose octapivalate and composite formulations (1:1 ratio) of the two branched-chain HDCs by solvent removal by rotary evaporation, in a Buchi Rotavapor R-124, of a 20% solution of active plus HDCs in a dichloromethane: acetone mixed solvent (9:1 ratio) system. […] (trehalose octapivalate) of the single branched-chain HDC formulations of active.
(§2) The model hydrophobic steroid fluticasone propionate (“hydrophobic active”) was incorporated (5% loading) into solid vehicles of the single straight chain HDC trehalose octaacetate or the branched chain HDCs trehalose octa-3,3, dimethylbutyrate and trehalose dipropanoate hexaacetate and composite formulations (1:1 ratio) of the two branched-chain HDCs by either quenching from the melt or solvent evaporation by rotary evaporation. Melt incorporation was carried out by melting the HDCs at 150-170° C. and dissolving the active in the melt at 120-140° C. Rotary evaporation was carried out using a Buchi Rotavapor R-124 using a 20% solution of active plus HDCs in a dichloromethane: acetone mixed solvent (9:1 ratio) system. The hydrophobic active was also incorporated into solid vehicles of the branched chain HDCs, trehalose octapivalate, trehalose diisobutyrate hexaacetate and lactose isobutyrate heptaacetate, either by quenching from the melt or solvent evaporation by rotary evaporation. Release of hydrophobic active from the HDC solid dose delivery vehicle was assessed using an in vitro USP (volume 23) type 2 dissolution test in saline containing 0.1% sodium cholate as the dissolution medium.
(§3) As an example of a polypeptide drug, the polypeptide hormone insulin (“polypeptide active”) was incorporated (10% loading) into solid vehicles of the single branched chain HDCs trehalose diisobutyrate hexaacetate and trehalose hexapivalate and composite formulations of the branched chain HDCs trehalose diisobutyrate hexaacetate and trehalose octapivalate (8:1 ratio) by solvent removal by lyophilization of a 20% solution of insulin plus HDCs in dimethylsulfoxide. […] Release of active from the HDC solid dose delivery vehicle was assessed using an in vitro USP (volume 23) type 2 dissolution test in saline containing 0.1% sodium cholate as the dissolution medium.

[2] = Glass transition temperature (Tg) of derivatized carbohydrates, by DSC; type: physicochemical
Text: The reaction product can be characterized structurally by methods known in the art, including, but not limited to, nuclear magnetic resonance spectroscopy (NMR) and its material science properties characterized by differential scanning calorimetry (DSC). The characteristic melting points and Tgs (glass transition temperatures) for the derivatized carbohydrates can also be determined by DSC and other methods known in the art.
(§4) The carbohydrate derivatives were routinely synthesized by standard esterification of the carbohydrate with the chloride of the desired hydrocarbon side chain under anhydrous conditions and the resulting derivatives purified by standard techniques of solvent extraction and re-crystallization. For example, trehalose octa-3,3-dimethylbutyrate was synthesized by reacting 3,3,-dimethylbutyroyl chloride with trehalose in anhydrous pyridine, followed by extraction with ether, hydrochloric acid, potassium carbonate solution and water and finally re-crystallized twice from alcohol to yield colorless, needle-like crystals (˜80% yield) of m.pt 138-140° C., αD 112°. Trehalose hexa-3,3-dimethylbutyrate (THEX) can be prepared by protecting the 6,6′-hydroxy group of trehalose with a bulky group such as trityl or t-butyldiphenylsilyl, for example by heating trehalose and trityl chloride in pyridine. The 6,6′-ditrityltrehalose can be acylated with 3,3-dimethylbutyroyl chloride in pyridine to give 6,6′-ditritylhexa-3,3-dimethylbutyryltrehalose. The trityl group can be removed by strong acid, for example hydrogen bromide in acetic acid, to give THEX. TACT can be prepared by acylating THEX with acetic anhydride in pyridine. Suitable work-up yields the HDC in crystalline form. The physical characteristics, melting points and glass transition temperatures (Tg, ° C.) of selected carbohydrate derivatives are shown in Tables 1-5.

[3] = In vitro USP (volume 23) type 2 dissolution test, release of active from HDC solid vehicle; type: physicochemical; details: saline with 0.1% sodium cholate; for release of fluticasone propionate from single HDC formulation: compared to trehalose octaacetate formulation Q1 (FIG. 3)
Text: as §1, §2, §3

[4] = Glass formation, crystallization and glass stability above ambient temperature; type: physicochemical
Text: In the usual process to form a vitreous glass, a high temperature melt is quenched (cooled quickly) to solidify without crystallization to a vitreous glass. Most glassy materials can theoretically quench to a vitreous glass, however, factors such as low melt viscosity, thermodynamically favorable crystalline states and thermal degradation, limit their potential to form vitreous rather than crystalline solids.
as §4
This unusual property of branched-chain derivatives enables more hydrophobic derivatives (compared to the acetates) to be prepared, which permits further reduction of drug release rates for longer term applications.

[5] = Devitrification / glass stability when immersed in aqueous media; details: immersed in saline medium at 37° C.
[6] = hydrophobic active (fluticasone propionate, 5% loading) incorporated
[7] = derivatized carbohydrate alone, Tables 1-4
[8] = derivatized carbohydrate without active, Table 5

Tg (° C.) with active incorporated [1, 6] [°C]	Tg(° C.) [2, 7] [°C]	Tg(° C.) [2, 8] [°C]	also measured	Compound
45	42	46	release of diltiazem hydrochloride (DZM) from single HDC formulation ([3]; 10% loading, compared to trehalose octaacetate formulation (FIG. 1)): much slower release; release of fluticasone propionate from single HDC formulation [3]: much slower release	CC(C)(C)CC(=O)OC[C@H]1O[C@H](O[C@H]2O[C@H](COC(=O)CC(C)(C)C)[C@@H](OC(=O)CC(C)(C)C)[C@H](OC(=O)CC(C)(C)C)[C@H]2OC(=O)CC(C)(C)C)[C@H](OC(=O)CC(C)(C)C)[C@@H](OC(=O)CC(C)(C)C)[C@@H]1OC(=O)CC(C)(C)C [Trehalose octa-3,3-dimethylbutyrate]
80	81	80	Tg (° C.) with active incorporated ([1]; hydrophilic active (diltiazem hydrochloride) incorporated): 83.7 °C; release of fluticasone propionate from single HDC formulation [3]: much slower release	CC(C)(C)C(=O)OC[C@H]1O[C@H](O[C@H]2O[C@H](COC(=O)C(C)(C)C)[C@@H](OC(=O)C(C)(C)C)[C@H](OC(=O)C(C)(C)C)[C@H]2OC(=O)C(C)(C)C)[C@H](OC(=O)C(C)(C)C)[C@@H](OC(=O)C(C)(C)C)[C@@H]1OC(=O)C(C)(C)C [Trehalose octapivalate]
–	–	–	COMMENT: glass formation / glass stability above ambient temperature [4]: very hard to quench to glass	CC(C)C(=O)OCC1OC(OC2C(COC(=O)C(C)C)OC(OC(=O)C(C)C)C(OC(=O)C(C)C)C2OC(=O)C(C)C)C(OC(=O)C(C)C)C(OC(=O)C(C)C)C1OC(=O)C(C)C (stereo not drawn) [Cellobiose octaisobutyrate]
–	53	–	COMMENT: glass formation / glass stability above ambient temperature [4]: Good glass former	CC(=O)OCC1OC(OC2C(COC(C)=O)OC(OC(C)=O)C(OC(C)=O)C2OC(C)=O)C(OC(C)=O)C(OC(C)=O)C1OC(C)=O (stereo not drawn) [β-Cellobiose octaacetate, reference compound]
44	–	38	–	Trehalose dipropanoate hexaacetate
53	55	50	release of active (insulin) ([3]; after 1 hour in the dissolution assay): 88%	CC(=O)OCC1OC(OC2OC(COC(C)=O)C(OC(C)=O)C(OC(C)=O)C2OC(C)=O)C(OC(C)=O)C(OC(C)=O)C1OC(C)=O (stereo not drawn) [Trehalose octaacetate, reference compound]
–	44	–	stability of the glassy state [5]: the glass stability is reduced	CC(=O)OC[C@H]1O[C@H](O[C@H]2O[C@H](COC(C)=O)[C@@H](OC(=O)CC(C)(C)C)[C@H](OC(=O)CC(C)(C)C)[C@H]2OC(=O)CC(C)(C)C)[C@H](OC(=O)CC(C)(C)C)[C@@H](OC(=O)CC(C)(C)C)[C@@H]1OC(=O)CC(C)(C)C [Trehalose 6,6′-diaacetate hexa-3,3-dimethylbutyrate]
–	65	–	COMMENT: glass formation / glass stability above ambient temperature [4]: Poor glass former	CC(=O)OCC1OC(OC2C(COC(C)=O)OC(OC(C)=O)C(OC(C)=O)C2OC(C)=O)C(OC(C)=O)C(OC(C)=O)C1OC(C)=O (stereo not drawn) [α-Cellobiose octaacetate, reference compound]
–	86	86	Tg (° C.) with active incorporated ([1]; polypeptide active (insulin, 10% loading) incorporated by lyophilization from dimethylsulfoxide): 76.5 °C	Trehalose hexapivalate
–	64	–	stability of the glassy state [5]: stable in the glassy state	Trehalose hexa-3,3-dimethylbutyrate
59	60	60	crystallization from solution ([4]; blend: small amount of the corresponding anomer added): fails to crystallize; crystallization from solution ([4]; pure α,β anomers): crystallize from solution	CC(=O)OC[C@H]1O[C@@H](O[C@H]2[C@H](OC(C)=O)[C@@H](OC(C)=O)C(OC(=O)C(C)C)O[C@@H]2COC(C)=O)[C@H](OC(C)=O)[C@@H](OC(C)=O)[C@H]1OC(C)=O (stereo partly drawn) [Lactose isobutyrate heptaacetate]
